Source: patent US4772475A, “Controlled-release multiple units pharmaceutical formulation” (Yamanouchi Pharmaceutical Co., Ltd., priority 1985, dated 1988)

Experiments:
α = details: cited from earlier work
Solubility in water = type: physicochemical

solubility (Solubility in water): 3 to 5 mg/mL
SMILES: CCOc1ccccc1OCCNC(C)Cc1ccc(OC)c(S(N)(=O)=O)c1.Cl (centres unmarked) [YM-12617, 5-{2-[2-(o-ethoxyphenoxy)ethylamino]propyl}-2-methoxybenzenesulfonamide hydrochloride]
α-blocking action (α): shows an α-blocking action
